{"source": "paper PMC6843786", "about": "“Temporin-SHa and Its Analogs as Potential Candidates for the Treatment of Helicobacter pylori” (Biomolecules, 2019)", "key": {"H. pylori (ATCC 43504) [1]": {"system": "H. pylori (ATCC 43504)", "method": "(§1) Briefly, after the growth of H. pylori in liquid culture the optical density (OD) of the bacterial suspensions were read at 600 nm and adjusted to one. Stock solutions of the peptides at 1 mM were prepared in sterile water. Bacteria were diluted in medium to reach bacterial density around 10^5 bacteria/mL. One-hundred microliters per well of bacterial suspension were then added into sterile polypropylene 96-well microplates (Greiner BioOne, Paris, France) and exposed to increasing concentrations of peptides (from zero to 100 µM, 1:2 serial dilution). […] Plates were incubated at 37 °C for 24 h for H. pylori (ATCC 43504) and for 4–7 days for the clinical strains. H. pylori was tested in microaerophilic conditions generated using micro-anaerobic BD GasPak system. At the end of the incubation, OD600nm was measured using microplate reader (Synergy Mx, Biotek, Colmar, France). The MIC was defined as the lowest concentration of drug that inhibited visible growth of the organism. Experiments were conducted in independent triplicate (n = 3).\n(§2) It is also rich with mucus to protect it from the aggressive acidity. For this reason, the impact of mucins and pepsin on the activity of the peptides was investigated. The impact of the gastric mucins on peptide activity was evaluated using a combination of commercial porcine stomach mucins MUC2 and MUC3 (Sigma–Aldrich) at a final concentration of 1 mg/mL sterilized using 0.2 µm filter. This concentration was used based on the estimated concentration of mucins present in the mucus in vivo [27]. The effect of mucins on peptides activity was evaluated by MIC and by time killing assay as explained below. The resistance of the peptides to pepsin was tested as previously described with some changes. […] This concentration was used since it corresponds the pepsin concentration in the stomach (0.5–1 mg/mL)."}, "H. pylori (ATCC 43504) [2]": {"system": "H. pylori (ATCC 43504)", "test": "MIC after digestion by pepsin (resistance to pepsin)", "settings": "ATCC 43504, 4 h, pH 2", "method": "as §1, §2"}, "N87 cells": {"system": "N87 cells", "test": "In vitro toxicity assay using human gastric cells (resazurin)", "format": "cell-based", "settings": "for IC50: 48 h", "method": "[26] Human gastric cells N87 (ATCC CRL-5822) were cultured in RPMI-1640 medium supplemented with 10% fetal calf serum (FCS), 1% L-glutamine and 1% antibiotics (all from Invitrogen, Carlsbad, CA, USA) and were routinely seeded onto 25 cm^2 flasks maintained in a 5% CO2 incubator at 37 °C. For the toxicity assay, cells grown on 25 cm^2 flasks were detached using trypsin–EDTA solution (from Thermofisher), counted using Mallasez counting chamber and seeded into 96-well cell culture plates (Greiner Bio-one) at approximately 10^4 cells per well. The cells were left to grow for 48–72 h at 37 °C in a 5% CO2 incubator until they reached confluence. Plates were then aspirated and increasing concentrations of peptides were added to the cells for 48 h at 37 °C in a 5% CO2 incubator, volume of water corresponding to the volume of peptides being used as negative control. At the end of the incubation, wells were aspirated, and cell viability was evaluated using resazurin-based in vitro toxicity assay kit (Sigma-Aldrich) following manufacturer’s instructions. Briefly, resazurin stock solution was diluted 1:10 in sterile PBS containing calcium and magnesium (PBS^++, pH 7.4) and empty wells were filled with 100 µL of the diluted solution. After 4 h incubation at 37 °C, fluorescence intensity was measured using microplate reader (Synergy Mx, Biotek) with an excitation wavelength of 530 nm and an emission wavelength of 590 nm. The fluorescence values were normalized by the controls and expressed as percent viability."}, "[3]": {"system": "total lipids extracted from H. pylori (ATCC 43504)", "test": "Lipid insertion assay (lipid monolayer, critical pressure of insertion)", "parameters": "species or system biophysical", "settings": "peptide 1 µM, PBS pH 7.4, from the line fits of Figure 4", "method": "Peptide-lipid interaction was measured using reconstituted lipid monolayer at the air-water interface as previously described. Total lipids were extracted from overnight cultures of H. pylori (ATCC 43504) using Folch extraction procedure as previously described. Extracted total lipids were dried, resolubilized in chloroform:methanol (2:1, v/v) and stored at -20 °C under nitrogen. For peptide-lipid interaction assay, total lipid extract was spread using a 50 μL Hamilton's syringe at the surface of 800 μL of sterile PBS creating a lipid monolayer at the air-water interface. Lipids were added until the surface pressure reached the desired value. […] The variation of the surface pressure caused by peptide injection was then continuously monitored using a fully automated microtensiometer (μTROUGH SX, Kibron Inc., Helsinki, Finland) until reaching equilibrium (maximal surface pressure increase being usually obtained after 15-25 min). […] Variation of surface pressure was plotted as a function of initial surface pressure and the critical pressure of insertion of each peptide into H. pylori lipids was calculated as the theoretical value of initial pressure of lipid monolayer not permissive to peptide insertion, i.e., giving a variation of pressure equal to 0 mN/m."}, "H. pylori (ATCC 43504) [4]": {"system": "H. pylori (ATCC 43504)", "settings": "ATCC 43504, 24 h", "source_text": "H. pylori used in this study were either the reference strain obtained from the American Type Culture Collection (ATCC 43504) or clinical strains received frozen from our collaborator Josette Raymond from Hospital Cochin, Paris. Strains were obtained from patients who underwent a gastroendoscopy performed for various gastro-intestinal disorders according to the recommendations of Haute Autorité de Santé (HAS). During the endoscopy, biopsy samples were taken from antrum and corpus. Samples were then crushed, and the material was used for bacterial culture and molecular methods. An antibiogram was performed and strains were then frozen at -80 °C in a broth with 10% glycerol. Bacteria were cultured as previously described. Briefly, H. pylori (ATCC 43504) was cultured in brain heart infusion (BHI) and incubated at 37 °C for 16 h in microaerophilic condition in BD GasPak EZ using BD GasPak EZ CampyPak container system sachets (BD Biosciences, Le Pont-de-Claix, France). For clinical strains, a sample from the frozen bacteria was streaked on Blood Agar (Base) (Sigma-Aldrich, Illkirch-Graffenstaden, France) supplemented with 5% horse defibrinated blood (Fisher Scientific, Les Ulis, France) and 2% isovitale-X (Fisher Scientific, Illkirch-Graffenstaden, France). The petri dishes were then incubated at 37 °C for 4–7 days in microaerophilic condition. Then, a colony is transferred to 3 mL Mueller Hinton (MH) broth supplemented with 10% fetal bovine serum (FBS) and 2% isovitale-X. The cultures were then incubated for 4–7 days until the bacteria grow before further experiments.\nas §1"}, "H. pylori (ATCC 43504) [5]": {"system": "H. pylori (ATCC 43504)", "method": "The bactericidal activity of peptides was assessed using the time kill assay as previously described with some modifications. Briefly, overnight liquid culture of H. pylori (ATCC 43504) was prepared and an optical density measurement (OD600nm) was taken to provide an estimation of cell numbers in the culture. Bacterial suspension was then centrifuged at 3000 rpm for 5 min and the bacterial pellet was then resuspended in sterile PBS pH6 at approximatively 10^7 CFU/mL. The pH of PBS was changed from 7 to 6 with HCl to mimic the micro-environment surrounding H. pylori in the stomach. Indeed, although the lumen of the stomach is around 1–2, H. pylori is able, through the activity of its urease, to create a local micro-environment around it of pH 6 [31]. In addition to PBS pH 6, the time kill assay was also performed in PBS pH 6 containing a mixture of porcine stomach mucins MUC2 and MUC3 (at 1 mg/mL, final concentration) or in the presence of human gastric cells N87 producing human mucus. In that particular case, N87 cells were seeded onto 96-wells plates and left to grow for 48–72 h until they reached confluence. At that time, wells were aspirated and bacterial suspension in PBS pH 6 were added to the wells. In all cases, resuspended bacteria (200 µL) were treated with peptides or the conventional antibiotic amoxicillin at a final concentration corresponding to five times their MIC. Bacteria were then incubated in micro-aerobic conditions at 37 °C using GasPak units. […] The petri dishes were then incubated 16 h at 37 °C in microaerophilic conditions before counting of growing colonies. The number of surviving bacteria was calculated using the number of observed colonies and the dilution factor. The experiment was done in triplicate.", "remark": "listed apart in the source"}}, "note": "Read-outs that look alike come from different tables or passages of the source. Non-standard residues stand in square brackets, D forms with d. Residues, ends and D or L forms follow the SMILES beside them.", "data": [{"molecule": "CC[C@H](C)[C@H](NC(=O)CNC(=O)[C@H](CO)NC(=O)[C@H](CC(C)C)NC(=O)[C@@H](N)Cc1ccccc1)C(=O)N[C@H](C(=O)N[C@H](C)C(=O)N[C@@H](CCSC)C(=O)N[C@@H](CC(C)C)C(=O)NCC(=O)N[C@@H](CCCCN)C(=O)N[C@@H](CC(C)C)C(=O)N[C@@H](Cc1ccccc1)C(N)=O)C(C)C", "note": "[NST3, H-Phe^1-Leu^2-Ser^3-Gly^4-Ile^5-Val^6-D-Ala^7-Met^8-Leu^9-Gly^10-Lys^11-Leu^12-Phe^13-NH2] (H-FLSGIV[dA]MLGKLF-NH2)", "values": [{"measurement": "MIC in the Presence of mucins", "setting": "H. pylori (ATCC 43504) [1]; ATCC 43504, 24 h", "value": 6.25, "unit": "µM"}, {"measurement": "increase of MIC in the presence of mucins", "setting": "H. pylori (ATCC 43504) [1]; MUC2 and MUC3 at 1 mg/mL versus no mucins", "value": "two"}, {"measurement": "MIC after Digestion by Pepsin", "setting": "H. pylori (ATCC 43504) [2]", "value": ">50", "unit": "µM"}, {"measurement": "increase in toxicity to human gastric cells compared to temporin-SHa", "setting": "N87 cells", "value": "around 3 fold"}, {"measurement": "IC50", "setting": "N87 cells", "value": "520 ± 148", "unit": "µM"}, {"measurement": "critical pressure of insertion (CPI)", "setting": "[3]", "value": 35.73, "unit": "mN/m"}, {"measurement": "MIC on H. pylori (ATCC 43504)", "setting": "H. pylori (ATCC 43504) [4]", "value": 3.12, "unit": "µM"}]}, {"molecule": "CC[C@H](C)[C@H](NC(=O)[C@@H](C)NC(=O)[C@H](CO)NC(=O)[C@H](CC(C)C)NC(=O)[C@@H](N)Cc1ccccc1)C(=O)N[C@H](C(=O)N[C@H](C)C(=O)N[C@@H](CCSC)C(=O)N[C@@H](CC(C)C)C(=O)NCC(=O)N[C@@H](CCCCN)C(=O)N[C@@H](CC(C)C)C(=O)N[C@@H](Cc1ccccc1)C(N)=O)C(C)C", "note": "[NST4, H-Phe^1-Leu^2-Ser^3-D-Ala^4-Ile^5-Val^6-D-Ala^7-Met^8-Leu^9-Gly^10-Lys^11-Leu^12-Phe^13-NH2] (H-FLS[dA]IV[dA]MLGKLF-NH2)", "values": [{"measurement": "increase in toxicity to human gastric cells compared to temporin-SHa", "setting": "N87 cells", "value": "around 5 fold"}, {"measurement": "IC50", "setting": "N87 cells", "value": "306 ± 48.4", "unit": "µM"}, {"measurement": "critical pressure of insertion (CPI)", "setting": "[3]", "value": 39.12, "unit": "mN/m"}, {"measurement": "MIC on H. pylori (ATCC 43504)", "setting": "H. pylori (ATCC 43504) [4]", "value": "6.25 to 12.5", "unit": "µM"}]}, {"molecule": "CC[C@H](C)[C@H](NC(=O)CNC(=O)[C@H](CO)NC(=O)[C@H](CC(C)C)NC(=O)[C@@H](N)Cc1ccccc1)C(=O)N[C@H](C(=O)N[C@H](C)C(=O)N[C@@H](CCSC)C(=O)N[C@@H](CC(C)C)C(=O)N[C@H](C)C(=O)N[C@@H](CCCCN)C(=O)N[C@@H](CC(C)C)C(=O)N[C@@H](Cc1ccccc1)C(N)=O)C(C)C", "note": "[NST6, H-Phe^1-Leu^2-Ser^3-Gly^4-Ile^5-Val^6-D-Ala^7-Met^8-Leu^9-D-Ala^10-Lys^11-Leu^12-Phe^13-NH2] (H-FLSGIV[dA]ML[dA]KLF-NH2)", "values": [{"measurement": "increase in toxicity to human gastric cells compared to temporin-SHa", "setting": "N87 cells", "value": "around 15 fold"}, {"measurement": "IC50", "setting": "N87 cells", "value": "104 ± 9.3", "unit": "µM"}, {"measurement": "critical pressure of insertion (CPI)", "setting": "[3]", "value": 44.43, "unit": "mN/m"}, {"measurement": "MIC on H. pylori (ATCC 43504)", "setting": "H. pylori (ATCC 43504) [4]", "value": 3.12, "unit": "µM"}]}, {"molecule": "CC[C@H](C)[C@H](NC(=O)[C@@H](C)NC(=O)[C@H](CO)NC(=O)[C@H](CC(C)C)NC(=O)[C@@H](N)Cc1ccccc1)C(=O)N[C@H](C(=O)NCC(=O)N[C@@H](CCSC)C(=O)N[C@@H](CC(C)C)C(=O)N[C@H](C)C(=O)N[C@@H](CCCCN)C(=O)N[C@@H](CC(C)C)C(=O)N[C@@H](Cc1ccccc1)C(N)=O)C(C)C", "note": "[NST7, H-Phe^1-Leu^2-Ser^3-D-Ala^4-Ile^5-Val^6-Gly^7-Met^8-Leu^9-D-Ala^10-Lys^11-Leu^12-Phe^13-NH2] (H-FLS[dA]IVGML[dA]KLF-NH2)", "values": [{"measurement": "increase in toxicity to human gastric cells compared to temporin-SHa", "setting": "N87 cells", "value": "around 15 fold"}, {"measurement": "IC50", "setting": "N87 cells", "value": "84.7 ± 9", "unit": "µM"}, {"measurement": "critical pressure of insertion (CPI)", "setting": "[3]", "value": 33, "unit": "mN/m"}]}, {"molecule": "CC1(C)S[C@@H]2[C@H](NC(=O)[C@H](N)c3ccc(O)cc3)C(=O)N2[C@H]1C(=O)O", "note": "[amoxicillin, reference compound]", "values": [{"measurement": "killing", "setting": "H. pylori (ATCC 43504) [5]; 20 min, PBS pH 6, 5-times MIC", "value": 9, "unit": "%"}, {"measurement": "killing", "setting": "H. pylori (ATCC 43504) [5]; 3 h (180 min), PBS pH 6, 5-times MIC", "value": 34, "unit": "%"}, {"measurement": "killing", "setting": "H. pylori (ATCC 43504) [5]; 3 h, absence or presence of mucus, 5-times MIC", "value": "31.5–55%"}, {"measurement": "killing", "setting": "H. pylori (ATCC 43504) [5]; 9 h (540 min), 5-times MIC", "value": 75, "unit": "%"}]}]}
